“Also recorded” adds a separate entry of the source.
Key:
[1] = test system: adenosine triphosphate resynthesis; details: in muscle, creatine phosphate versus glycogen; cited from earlier work
[2] = endogenous level; cited from earlier work
[3] = physchem; details: weakly alkaline water
[4] = acidic conditions / stomach; cited from earlier work

Row | Compound | rate of ATP resynthesis compared to glycogen [1] | normal creatine concentration in the bloodstream [2] | degraded [3] [%] | creatine remaining, by HPLC (slightly alkaline water) | creatinine produced, by HPLC (weakly alkaline water) | conversion to creatinine under acidic conditions [4]
1 | CN(CC(=O)O)C(=N)NP(=O)(O)O [Creatine phosphate] | nearly twice the rate |  |  |  |  | 
2 | CN(CC(=O)O)C(=N)N [creatine, N-(aminoiminomethyl)-N-methylglycine] |  | about 50 μmol per liter of blood | ~15 | about 85% | about 15% | formation of creatinine from free creatine is complete; also recorded: rapidly converts to creatinine by the acidic conditions in the stomach

From US5973005A, “Aqueous creatine solution and process of producing a stable, bioavailable aqueous creatine solution” (priority 1998, dated 1999)
